Source: US20080317728A1, “Lowering Uric Acid to Prevent or Accelerate Recovery of Acute Renal Failure” (UNIVERSITY OF FLORIDA RESEARCH FOUNDATION, INC., priority 2004, published 2008)
Several values for one entry are separate records, joined by “and”; a condition that tells them apart may be missing. Identical values can stand only once.

Legend:
[1] = tested on: remnant kidney rats (5/6 nephrectomy); experiment: Renal histology in remnant kidney rats; assay type: in vivo, Sprague-Dawley rats; details: mean±SE
Experimental: Hyperuricemia in remnant kidney rats on normal sodium diet: Under light anesthesia with ether, 5/6 nephrectomy was performed by removal of the right kidney and selective ligation of 2-3 branches of left renal artery. To induce hyperuricemia rats were given OA (750 mg/kg) by gastric gavage starting the day after the renal ablation. To prevent hyperuricemia AP was administered in the drinking water (150 mg/L). The following groups were studied: 5/6 Nx (n=10); 5/6 Nx+OA (n=12) and 5/6 Nx+OA+AP (n=13). Systolic blood pressure, proteinuria and serum uric acid were measured at baseline and after 25-28 days of follow-up. Micropuncture studies were performed at 4 weeks.
(§1) Renal Histology: After the micropuncture study kidneys and remnant kidneys were washed by perfusion with PBS and then fixed with 4% paraformaldehyde. Renal biopsies were embedded in paraffin. Four μm sections of fixed tissue were stained with periodic acid Schiff (PAS) reagent. Arteriolar morphology was assessed by indirect peroxidase immunostaining for alpha-smooth muscle actin (DAIO Corp. Carpinteria, Calif., USA). In addition in remnant kidney rats glomerulosclerosis and fibrosis was assessed with Masson's trichrome stain and tubulointerstitial lymphocytes were assessed by indirect immunoperoxidase immunostaining for anti-CD-5.
Quantification of morphology: Quantifications were performed blinded. Arteriolopathy of afferent arterioles was evaluated as previously described (Sanchez-Lozada L G, Tapia E, Avila-Casado C, Soto V, Franco M, Santamaria J, Nakagawa T, Rodriguez-Iturbe B, Johnson R J, Herrera-Acosta J: Mild hyperuricemia induces glomerular hypertension in normal rats. Am. J. Physiol Renal Physiol 283:F1105-F1110, 2002). In brief, only vessels adjacent to glomeruli were selected. For each arteriole, the outline of the vessel and its internal lumen (excluding the endothelium) was generated using computer analysis to calculate the total medial area (outline-inline), in 10 arterioles per biopsy. The media/lumen ratio was calculated by the outline/inline relationship.
Glomerulosclerosis was evaluated in Masson's trichrome stained sections. The degree of sclerosis was scored as follows: in each biopsy the numbers of glomeruli with segmental, mesangial and global sclerosis as well as normal glomerular tufts were assessed. The resulting index in each animal was expressed as the percent of sclerosed glomeruli.
Tubulointerstitial fibrosis analysis was performed by a pathologist unaware of the origin of each kidney section. Evaluation was performed using slides stained with Masson's trichrome. Five noncrossed fields ([…], enlarged ×40) per biopsy were analyzed, using light microscopy (Olympus B-51. Olympus American, Melville, N.Y.) and captured with a digital video camera (CoolSnap Pro, Media Cybernetics Silver Spring, Md.). Each picture was processed on a computer and analyzed using Image-Pro and Photoshop 7 (Adobe Systems, SanJose, Calif.). Using the capabilities of color recognition by this software, a blue color was selected for positive areas. After selection, these areas were quantified (pixel unit) using the histogram function of the software. For each field, the number of positive areas was expressed as a fraction of the tubulointerstitial area (positive areas divided by the overall field area). Finally, for each biopsy, the mean fractional amount of positive areas was obtained by averaging the values obtained from 5 fields examined. […]

[2] = tested on: normal rats on normal sodium diet; experiment: Renal histology, afferent arteriole morphology in normal rats; assay type: in vivo, Sprague-Dawley rats
Experimental: Hyperuricemia in normal rats on normal sodium diet: To produce hyperuricemia, rats were administered oxonic acid (OA) (Sigma, St Louis Mo., USA) 750 mg/kg body weight by gastric gavage. To prevent the rise of serum uric acid induced by OA, allopurinol (AP) (Sigma, St Louis Mo., USA) was administered in drinking water (150 mg/L). We studied the following groups: Control (n=8); OA (n=7) and OA plus allopurinol (n=9). Systolic blood pressure and serum uric acid were measured at baseline and after 30-33 days of follow-up. Micropuncture studies were performed at 5 weeks.
as §1
Quantification of morphology: Quantifications were performed blinded. […] The media/lumen ratio was calculated by the outline/inline relationship.

SMILES	AA M/L (afferent arteriole media to lumen ratio) [1]	effect on thickening of afferent arterioles ([2]; with oxonic acid)	Glomerulosclerosis ([1]; Masson's trichrome)	TI Fibrosis ([1]; Masson's trichrome)	TI CD5 + (tubulointerstitial infiltration of CD5 positive cells) ([1]; immunoperoxidase)	AA M/L (afferent arteriole media to lumen ratio) ([1]; listed as Oxonic acid)	AA M/L (afferent arteriole media/lumen ratio) ([2]; after micropuncture, mean±SE)
Oc1ncnc2[nH]ncc12 [AP, allopurinol]	1.8	prevented	–	–	–	–	–
O=C(O)c1nc(=O)[nH]c(=O)[nH]1 [OA, oxonic acid]	6.4 ± 0.37	–	0.33 ± 0.07%	780.2 ± 55.0 arbitrary units	26.1 cells/mm^2 and 26.1 ± 2.99 cells/mm^2	6.4	5.1 ± 0.6
